Measurements published in PMC11483813, “Bombesin-Targeted Delivery of β-Carboline-Based Ir(III) and Ru(II) Photosensitizers for a Selective Photodynamic Therapy of Prostate Cancer” (Inorganic Chemistry, 2024).

Legend:
[1] = Photocatalytic singlet oxygen generation (ABDA probe); type: physicochemical; settings: H2O:DMSO (1:1), blue light 460 nm, rose bengal as reference
Description: Singlet oxygen is thought to be the main cytotoxic species in type II PDT processes. Therefore, we determined the ability of Ir-Me and Ru-Me to generate ^1O2 under photocatalytic conditions, as illustrative examples of our PSs. As shown in Figures 6 and S51, we monitored by means of UV–vis spectroscopy the oxidation of 9,10-anthracenediyl bis(methylene)dimalonic acid (ABDA, 8x 10^–5 M) in the presence of atmospheric oxygen, using Ir-Me (10^–5 M) as the PS and H2O:DMSO (1:1) as the solvent system under blue light exposure (λir = 460 nm). […] Moreover, the singlet oxygen quantum yield values (ΦΔ) of Ir-Me and Ru-Me were determined using rose bengal (ΦΔ = 0.75) as the reference. […]
an integrating sphere. For the determination of the luminescence lifetime, the fluorescence decay was measured on a FLS980 spectrofluorometer equipped with a TSCPC laser (Ir(III) complexes: λ ex = 405 nm; Ru(II) complexes: λ ex = 450 nm) and a REDPMT detector. The F980 spectrometer operating software was used to collect and process luminescence lifetime data.
Photostability of Ir(III) and Ru(II) complexes. The photostability of Ir(III) or Ru(II) complexes was monitored by 1H RMN. […]
Singlet oxygen generation. The capacity of Ir-Me and Ru-Me to generate singlet oxygen ( 1O2) was determined by an indirect method using 9,10-anthracenediyl-bis(methylene) dimalonic acid (ABDA) as a probe. […]

[2] = Self-aggregation study (Lambert-Beer law, UV-vis); type: physicochemical; settings: H2O:DMSO (99:1), 1 to 40 μM, absorbance at 417 nm
Procedure: The possible aggregation properties (self-assembly behavior) were investigated for the lipophilic derivative Ir-Me through the respective analysis of the Lambert–Beer law using UV–vis spectroscopy in H2O:DMSO (99:1). More specifically, the absorbance of Ir-Me at λ = 417 nm was plotted versus concentration in the range between 1 and 40 μM. An excellent linear fitting was obtained confirming that there is no significant deviation from the Lambert–Beer law (Figures S57 and S58).

PC-3 cells = experiment: Apoptosis assay, annexin V/propidium iodide; type: cell-based, human; settings: five times IC50,light, photoactivated, 24 h
Procedure: Mitochondria play an important role in the regulation of apoptosis. Alterations in the MMP can cause the release of apoptotic factors, such as cytochrome c, which activates the caspase cascade, leading to programmed cell death.[66],[67] In order to elucidate whether the toxic effect of the compounds at the mitochondrial level triggers cell death by apoptosis, a dual annexin V/propidium iodide labeling experiment was performed. The initial stages of apoptosis are characterized by alterations in the symmetry of phospholipids in the cytoplasmic membrane, which can be detected using annexin V (An). The late stages also include disruption of the cell membrane, permitting the penetration of propidium iodide (PrI), which emits red fluorescence when bound to DNA. […]
Figure 13 Cell death mechanism. […] After 24 h, the percentage of viable, necrotic, early apoptotic, and late apoptotic cells was analyzed by flow cytometry using propidium iodide and annexin V staining. […]
PC-3 cells were seeded into 12-well plates at a density of 100000 cells/well. […] The samples were immediately analyzed using a Novocyte flow cytometer. Annexin-FITC staining was detected at a wavelength of 520 nm, and propidium iodide was detected at 617 nm. The fluorescence emission of 10000 cells per sample was measured, and the percentages of live, early apoptotic, late apoptotic, and necrotic cell populations were determined.

In the case of `COC(=O)/C=C/c1ccc(-c2nccc3c4ccccc4n(C)c23)nc1.[Cl-].[Ir+3].[c-]1ccccc1-c1ccccn1.[c-]1ccccc1-c1ccccn1` [Ir-Me], the “singlet oxygen quantum yield (ΦΔ)” value [1] is reported as 4%, the self-aggregation [2] is reported as “does not form aggregates” and the “cells in early apoptosis” value (PC-3 cells) is reported as 11.9%. The “cells in late apoptosis” value (PC-3 cells) was 41.7%.
